Patent publication US20160009752A1, “[…]-OXIMINO-AMINOALKYLETHERS AND PROCESS FOR PREPARATION THEREOF, USEFUL AS ANTIDIABETIC AND […] AGENTS” (COUNCIL OF SCIENTIFIC & INDUSTRIAL RESEARCH, priority 2013, published 2016)
Like-named read-outs stand apart in the source and are kept apart here.

How the values were obtained:
[1] = test system: L6 myotubes; assay: 2-3H-deoxyglucose uptake by skeletal muscle cells; format: cell-based, rat; settings: for 2-deoxyglucose uptake, fold vs. control: 16 h
Protocol: The fold increase in 2-deoxy-glucose uptake in the presence of test compound by rat skeletal muscle cells (L-6 myotubes) was considered as % antihyperglycemic activity of the test compound which was carried out as follows. L6 myotubes were incubated with increasing concentrations of 14b and the standard drug rosiglitazone (10 μM) for 16 h. After incubation glucose uptake was assessed for 5 min in HEPES-buffered saline [140 mM NaCl, 20 mM HEPES, 5 mM KCl, 2.5 mM MgSO4, 1 mM CaCl2 (pH 7.4)] containing 10 μM 2-deoxyglucose (0.5 μCi/ml 2-[^3H]-deoxyglucose) at room temperature. Subsequently cells were rinsed with an ice-cold solution containing 0.9% NaCl and 20 mM D-glucose. To quantify the radioactivity incorporated, cells were lysed with 0.05 N NaOH and lysates were counted with scintillation fluid in a β-counter. Nonspecific uptake was determined in the presence of cytochalasin B (50 μM) during the assay, and these values were subtracted from all other values. Glucose uptake was measured in triplicate and normalized to total protein, was expressed as fold increase with respect to control cells.

[2] = Stability studies in rat plasma samples; format: in vitro ADME; settings: freeze-thaw cycle, bench top, dry residue and long term conditions
Excerpt: The plasma of the rat treated with compound 14b was then processed for the stability study. The compound is found to be stable during freeze-thaw cycle, on the bench top, dry residue and long term conditions after extraction from plasma.

[3] = test system: sucrose loaded rat; assay: Sucrose loaded rat model (SLM), oral tolerance test; format: in vivo; parameters: % Antihyperglycemic activity SLM: concentration or dose not given beside the values
Excerpt: On the day of experiment blood glucose of all the overnight fasted animals was checked by Glucostrips (Roche) using Glucometer (ACCU-CHEK II; Roche Diagnostics, USA). […] Animals were divided into groups consisting of five animals in each. […] The test compounds and standard drug was always prepared in the vehicle 1% gum acacia. […] Food (not water) was removed from the cages during the experimental period. […] Comparing the AUC of test sample or drug treated groups compared to control group determined the percent improvement in OGTT by test sample and standard drugs and termed as antihyperglycaemic activity. Statistical analysis between the groups was done by employing Students t test

[4] = test system: STZ-induced diabetic rats; assay: Streptozotocin-induced diabetic rat model (STZ); format: in vivo; settings: 100 mg/kg
Protocol: Male albino rats (Sprague Dawley Strain) of body weight 160±20 g were procured from the colony of CDRI Animal House. 4 to 5 animals were kept in one polypropylene cage and acclimatized for one week in the new environment. The animals were made diabetic by injecting streptozotocin (STZ) intraperitoneally to the overnight starved animals at a dose of 60 mg/kg prepared in 100 mM citrate buffer (pH 4.5). Fasting blood glucose level of each animal was measured after 48 hours post STZ injection by Glucostrips (Roche) using Glucometer (ACCU-CHEK II; Roche Diagnostics, USA) and animals showing blood glucose level above 280 mg/dl were considered as diabetic. The diabetic rats with fasting blood glucose values varying between 280-450 mg/dl were included in this study. Animals were divided into groups consisting of five animals in each. Group one was considered as a control group, where as the other groups were termed as experimental groups. Rats of experimental group were usually given 100 mg/kg body weight of the test samples unless stated otherwise and standard drug i.e. metformin, respectively. The test samples and standard drug i.e. metformin was always prepared in the vehicle 1% gum acacia. 30 min post administration of the test samples/vehicle/standard drug, blood glucose levels of the animals of all the groups were measured at 30, 60, 90, 120, 180, 240, 300 and 1440 min. Food (not water) was removed from the cages during the experimental period. A plot was drawn between time and blood glucose levels on x and y axis, respectively and the area under curve (AUC) between 0 to 300 min were calculated of each group. The percent decline in AUC of the experiment group compared to sham treated control group termed as % antihyperglycaemic activity. Statistical comparison between the groups was done by employing Student's ‘t’ test.

[5] = Pharmacokinetic study after oral and intravenous dose in rats; format: in vivo; parameters: Vd/F / Vd: unit not given here; settings: rat
Excerpt: In order to study its bioavailability, the method of its quantitative determination in plasma matrices in rat was developed and validated. […] The method was applied in the analysis of PK samples obtained after oral and intravenous dose administration in rats.

C/C(=N\OCCN1CCCCC1)[C@H]1CC[C@H]2[C@@H]3CC=C4C[C@@H](O)CC[C@]4(C)[C@H]3CC[C@]12C [Compound 14b, 3β-Hydroxy-pregna-5-en-20-one-O-(2-piperidin-1-yl-ethyl)-oxime]
2-deoxyglucose uptake, fold vs. control ([1]; 1.0 μM): 1.59±0.28 fold | 2-deoxyglucose uptake, fold vs. control ([1]; 2.5 μM): 2.61±0.45 fold | 2-deoxyglucose uptake, fold vs. control ([1]; 5.0 μM): 2.88±0.74 fold | 2-deoxyglucose uptake, fold vs. control ([1]; 10 μM): 3.37±0.12 fold | glucose uptake in presence of cytochalasin-B ([1]; cytochalasin-B 50 μM added to transport solution): completely blocked | minimum concentration increasing glucose uptake to a significant level ([1]; p<0.05): 1.0 µM | stability after extraction from plasma [2]: stable | Blood glucose profile, 0 min post glucose load ([3]; 100 mg/kg): 94.2 ± 2.6 mg/dL | Blood glucose profile, 30 min post glucose load ([3]; 100 mg/kg): 120.8 ± 2.1 mg/dL | Blood glucose profile, 60 min post glucose load ([3]; 100 mg/kg): 101.4 ± 2.9 mg/dL | Blood glucose profile, 90 min post glucose load ([3]; 100 mg/kg): 89.4 ± 3.3 mg/dL | Blood glucose profile, 120 min post glucose load ([3]; 100 mg/kg): 69.4 ± 2.3 mg/dL | % Antihyperglycemic activity SLM ([3]; Table 2, sucrose loaded rat): 24.4% | anti-diabetic activity, in words ([3]; all the models including db/+ mice models): better anti-diabetic activity | melting point: 130 to 135 °C | Blood glucose level, 0 min post sucrose load [4]: 357.4 ± 17.9 mg/dL | Blood glucose level, 30 min post sucrose load [4]: 353.8 ± 6.3 mg/dL | Blood glucose level, 60 min post sucrose load [4]: 387.0 ± 20.8 mg/dL | Blood glucose level, 90 min post sucrose load [4]: 374.4 ± 23.1 mg/dL | Blood glucose level, 120 min post sucrose load [4]: 375.0 ± 20.2 mg/dL | Blood glucose level, 180 min post sucrose load [4]: 366.6 ± 16.7 mg/dL | Blood glucose level, 240 min post sucrose load [4]: 333.0 ± 11.7 mg/dL | Blood glucose level, 300 min post sucrose load [4]: 301.4 ± 12.1 mg/dL | Blood glucose level, 1440 min post sucrose load [4]: 408.0 ± 17.1 mg/dL | absorption, in words ([5]; oral dosing): slow absorption | time at which plasma concentrations peaked post-dose ([5]; oral dosing): ≥ 10 h | AUC(0-t) ([5]; plasma, intravenous route): 826 ± 88.7 ng·h/mL | C0 ([5]; plasma, intravenous route): 166 ± 90.2 ng/mL | MRT ([5]; plasma, intravenous route): 25.3 ± 1.99 h | clearance ([5]; plasma, intravenous route): 206 mL/min/kg | half-life ([5]; plasma, intravenous route, read-out: T1/2 (converted)): 15.4 ± 1.25 h | Vd ([5]; plasma, intravenous route, read-out: Vz): 268 ± 11.3 | AUC(0-inf) ([5]; plasma, oral route): 1210 ± 166 ng·h/mL | CL/F ([5]; plasma, oral route): 603 mL/min/kg | Cmax ([5]; plasma, oral route): 40.4 ± 7.03 ng/mL | MRT ([5]; plasma, oral route): 23.2 ± 1.31 h | bioavailability ([5]; plasma, oral route): 33.6% | half-life ([5]; plasma, oral route, read-out: T1/2 (converted)): 14.3 ± 0.95 h | Vd/F ([5]; plasma, oral route, read-out: Vz/F): 739 ± 87.1 | half-life ([5]; plasma, route not stated, read-out: elimination half-life): > 14 h | clearance, in words [5]: large clearance | bio-availability, in words ([5]; in vivo): good bio-availability
